What was measured:
Format in all cases: functional
[1] = test system: Equine infectious anemia virus; assay: Antiviral activity against equine infectious anemia virus (EIAV) in deoxygenation condition effected by using beta-carotene at a concentration of 32 uM
[2] = test system: Equine infectious anemia virus; assay: Antiviral activity against equine infectious anemia virus (EIAV) in deoxygenation condition effected by using beta-carotene at a concentration of 80 uM
[3] = test system: Equine infectious anemia virus; assay: Antiviral activity against equine infectious anemia virus (EIAV) in hypoxic condition obtained by passing nitrogen gas, after 10 min of illumination using focal, immunoassay
[4] = test system: Equine infectious anemia virus; assay: Antiviral activity against equine infectious anemia virus (EIAV) in hypoxic condition obtained by passing argon gas, after 0 min of illumination, using focal immunoassay
[5] = test system: Equine infectious anemia virus; assay: Antiviral activity against equine infectious anemia virus (EIAV) in hypoxic condition obtained by passing nitrogen gas, after 0 min of illumination using focal, immunoassay
[6] = test system: Equine infectious anemia virus; assay: Antiviral activity against equine infectious anemia virus (EIAV) in oxygenated condition after 10 min of illumination, using focal immunoassay
[7] = test system: Equine infectious anemia virus; assay: Antiviral activity against equine infectious anemia virus (EIAV) in hypoxic condition obtained by passing argon gas, after 10 min of illumination, using focal immunoassay
[8] = test system: Equine infectious anemia virus; assay: Antiviral activity against equine infectious anemia virus (EIAV) in deoxygenation condition effected by using beta-carotene at a concentration of 64 uM
[9] = test system: Equine infectious anemia virus; assay: Antiviral activity against equine infectious anemia virus (EIAV) in deoxygenation condition effected by using beta-carotene at a concentration of 0 uM

Cc1cc(O)c2c(=O)c3c(O)cc(O)c4c5c(O)cc(O)c6c(=O)c7c(O)cc(C)c8c1c2c(c34)c(c78)c65 [HYPERICIN]
Infectious virus [1]: 0 ffu ml-1
Infectious virus [2]: 0 ffu ml-1
Infectious virus [3]: 25 ffu ml-1
Infectious virus [4]: 5975 ffu ml-1
Infectious virus [5]: 14500 ffu ml-1
Infectious virus [6]: 0 ffu ml-1
Infectious virus [7]: 225 ffu ml-1
Infectious virus [8]: 0 ffu ml-1
Infectious virus [9]: 0 ffu ml-1
